Here are results for 14 compounds from patent publication US7550468B2, “Theophylline and 3-isobutyl-1 methylxanthine based N-7 substituted derivatives displaying inhibitory activities on PDE-5 phospodiesterase” (priority 2000, dated 2009).

In one experiment the test system is intracavernous pressure. Nature of the experiment: Intracavernous pressure and tumescence response in rabbits. Type of experiment: in vivo. As to conditions: 2 mg/kg in rabbits.
A further experiment concerns the target T1, PDE5 (human platelet) (Homo sapiens, UniProt O76074).
T1 construct: PDE5 (human); from tissue; host or cells: human platelets
Nature of the experiment: PDE5 (human platelet) inhibition. Type of experiment: biochemical.

The next experiment deals with Rabbit Corpus Cavernosal. The experiment in a line: Relaxation of phenylephrine precontracted rabbit corpus cavernosal strips. As to conditions: for IC50 / EC50: Oryctolagus cuniculus. Type of experiment: cell-based. The source says:
Recently some reports have stated that theophyllline has an adenosine […] antagonist and phosphodiesterase (PDE) inhibitor function. […] FIG. 4A illustrates the experimental results and the effects of compound 14 on phenylphrine precontracted rabbit corpus cavemosal in the absence and presence of L-NAME, methylene blue, ODQ. FIG. 4B illustrates the experimental results and the effects of compound 14 on phenylphrine precontracted rabbit corpus cavernosal in absence and presence of potassium channel blockers.

In the case of `COc1ccccc1N1CCN(CCn2cnc3c2c(=O)n(C)c(=O)n3C)CC1` [Compound 10, 7-{2-[4-(o-Methoxyphenyl)piperazinyl]ethyl}-1,3-dimethylxanthine], in the experiment on intracavernous pressure, the “Duration of tumescence response” value is recorded as 13 ± 2.1 min and the “Peak increased intracavernous pressure ΔICP (mmHg)” value was 12 ± 1.6 mmHg.

`CCOc1ccc(S(=O)(=O)N2CCN(C)CC2)cc1CNCCn1cnc2c1c(=O)n(C)c(=O)n2C` [Compound 34, 7-[2-({5-[(4-methylpiperazin-1-yl)sulfonyl]-2-ethoxybenzyl}amino)ethyl] dimethylxanthine] displayed an IC50 at PDE5 (human platelet) of 0.0004 ± 0.0002 µM. The “pEC50 (−log EC50) for relaxation” value in the experiment with Rabbit Corpus Cavernosal was 8.13 ± 0.05.

For the compound “7-[12-({5-[(4-methylpiperazin-1-yl)sulfonyl]-2-propoxybenzyl}amino)ethyl] dimethylxanthine [Compound 35]”, half-maximal inhibition against PDE5 (human platelet) (IC50) was put at 0.0004 ± 0.0001 µM. In addition, in the experiment on Rabbit Corpus Cavernosal, the “pEC50 (−log EC50) for relaxation” value is 8.25 ± 0.06.

On to `CC(C)Cn1c(=O)n(C)c(=O)c2c1ncn2CCN1CCN(c2ccccc2Cl)CC1` [Compound 14, 7-{2-[4-(2-chlorophenyl)piperazinyl]ethyl}-3-isobutyl-1-methylxanthine], for which the IC50 at PDE5 (human platelet) is 0.0038 ± 0.0002 µM; with Rabbit Corpus Cavernosal, 0.0145 µM. Besides, the EC50 is 0.0646 µM with Rabbit Corpus Cavernosal (Control (no drug pretreatment)); 1.48 µM in the experiment on Rabbit Corpus Cavernosal (pretreatment 4-AP 100 μM); 0.269 µM in the experiment with Rabbit Corpus Cavernosal (pretreatment Glibenclamide 1 μM); 0.309 µM with Rabbit Corpus Cavernosal (pretreatment L-NAME 100 μM); 0.309 µM in the experiment with Rabbit Corpus Cavernosal (pretreatment Methylene blue 10 μM); 0.162 µM in the experiment on Rabbit Corpus Cavernosal (pretreatment ODQ 1 μM). Also, the EC50 in the experiment with Rabbit Corpus Cavernosal (pretreatment TEA 10 mM) is 9.18 µM.

Take “7-{2-[4-(nitrobenzene)piperazinyl]ethyl}-1,3-dimethylxanthine [Compound 9]”: in the experiment with intracavernous pressure, the “Duration of tumescence response” value is on record as 16 ± 1.2 min and the “Peak increased intracavernous pressure ΔICP (mmHg)” value amounted to 25 ± 1.3 mmHg.

In the case of `CC(C)Cn1c(=O)n(C)c(=O)c2c1ncn2CCN1CCN(C(=O)c2ccco2)CC1` [Compound 18, 7-{2-[4-(2-furoyl)piperazinyl]ethyl}-3-isobutyl-1-methylxanthine], in the experiment with intracavernous pressure, the “Duration of tumescence response” value is given as 18 ± 1.3 min and the “Peak increased intracavernous pressure ΔICP (mmHg)” value amounted to 26 ± 1.4 mmHg.

On to “7-{2-[(2-propoxybenzyl)aniino]ethyl}-3-isobutyl-1-methylxanthine [Compound 38]”, for which the half-inhibitory concentration (IC50) against PDE5 (human platelet) came out at 0.0006 ± 0.0002 µM. Also, the “pEC50 (−log EC50) for relaxation” value with Rabbit Corpus Cavernosal is 8.16 ± 0.07.

In the case of `CC(C)Cn1c(=O)n(C)c(=O)c2c1ncn2CCN1CCN(Cc2ccccc2)CC1` [Compound 17, 7-{2-[4-benzylpiperazinyl]ethyl}-3-isobutyl-1-methylxanthine], the IC50 against PDE5 (human platelet) is 0.0062 ± 0.0002 µM; in the experiment with Rabbit Corpus Cavernosal, 0.0229 µM.

As for `Cn1c(=O)c2c(ncn2CCN2CCN(c3ccccc3Cl)CC2)n(C)c1=O` [Compound 4, 7-{2-[4-(2-chlorophenyl)piperazinyl]ethyl}-1,3-dimethylxanthine], in the experiment with intracavernous pressure, the “Duration of tumescence response” value is recorded as 14 ± 1.1 min and the “Peak increased intracavernous pressure ΔICP (mmHg)” value came out at 14 ± 2.1 mmHg. At PDE5 (human platelet), the IC50 was 0.0039 ± 0.0001 µM. Moreover, half-maximal inhibition with Rabbit Corpus Cavernosal (IC50) was put at 0.0692 µM.

With `CCCOc1ccc(C(N)=O)cc1CNCCn1cnc2c1c(=O)n(C)c(=O)n2CC(C)C` [Compound 41, 4-propoxy-3-({[2-(3-isobutyl-1-methyl-2,6-dioxo-1,2,3,6-tetrahydro-7H-purin-7-yl)ethyl]amino}methyl)benzamide], the IC50 at PDE5 (human platelet) is 0.0008 ± 0.0002 µM; with Rabbit Corpus Cavernosal, 0.00501 µM.

On to `Cc1ccccc1S(=O)(=O)N1CCN(CCn2cnc3c2c(=O)n(C)c(=O)n3CC(C)C)CC1` [Compound 26, 7-(2-{4-[(2-methylphenyl)sulfonyl]piperazinyl}ethyl)-3-isobutyl-1-methylxanthine], for which the figures for the IC50 on PDE5 (human platelet) and in the experiment with Rabbit Corpus Cavernosal were 0.0048 ± 0.0002 µM and 0.038 µM, respectively.

As for `CCCn1cnc2c1c(=O)n(C)c(=O)n2CC(C)C` [Compound 46], the IC50 against PDE5 (human platelet) was 0.0052 ± 0.0001 µM. The “pEC50 (−log EC50) for relaxation” value in the experiment with Rabbit Corpus Cavernosal is listed as 7.96 ± 0.03.

As to `Cn1c(=O)c2c(ncn2CCN2CCN(Cc3ccccc3)CC2)n(C)c1=O` [Compound 7, 7-{2-[4-benzylpiperazinyl]ethyl}-1,3-dimethylxanthine], the 50% inhibitory concentration (IC50) at PDE5 (human platelet) was 0.0042 ± 0.0002 µM; with Rabbit Corpus Cavernosal it was 0.0741 µM.

For `CC(C)Cn1c(=O)n(C)c(=O)c2c1ncn2CCN1CCN(c2ncccn2)CC1` [Compound 12, 7-{2-[4-(2-Pyrimidyl)piperazinyl]ethyl}-3-isobutyl-1-methylxanthine], in the experiment with intracavernous pressure, the “Duration of tumescence response” value was determined as 15 ± 1.3 min and the “Peak increased intracavernous pressure ΔICP (mmHg)” value was 23 ± 1.5 mmHg.

In general, IC50 refers to the concentration that gives 50% inhibition. As a reminder, the EC50 is the midpoint of the concentration-response curve.
